Data taken from patent US20190185499A1, “Novel Compounds” (Colgate-Palmolive Company, priority 2017, published 2019).

Assay: Lack of precipitate formation in aqueous solution
Format: physicochemical
Details: ~5% concentration solution in water; after three months following its preparation
Description: 3.220 g of sodium ascorbyl phosphate is dissolved into 100 mL water and then 1.567 g of SnF2 is added. The mixture is stirred into completely solubilized and heat at 60 C for one hour. The solution is directly analyzed by 13C-NMR and diluted into 5000 ppm and analyzed by LC-MS.
In one aspect, a solution of ˜5% concentration of stannous ascorbyl phosphate is prepared as described in the above examples.

Substance: stannous ascorbyl phosphate
- formation of an observable precipitate: will not form an observable precipitate
